This note sets out measurements from US9598386B2, “Immunomodulatory compounds” (University of Strathclyde, priority 2012, dated 2017).

The test system of data set [1] is DBA/1 mice undergoing CIA. Put plainly: Collagen-induced arthritis (CIA) mouse model of rheumatoid arthritis. The class given is in vivo. The settings on record: prophylactic treatment, 1 μg/dose at d-2, d0 and d21, versus PBS; FIG. 1. The protocol:
DBA/1 mice undergoing CIA (PBS) were treated with SMAs S3 (1 μg/dose; S3-1) and S5 (1 μg/dose; S5-1) at d-2, d0 and d21 and monitored every second day for (A) articular score; (B) paw swelling; (C) incidence of CIA (articular score>2) and (D) incidence of severe pathology (articular score >4). Data in A & B are presented as mean values±SEM where PBS, n=28, S3, n=14 and S5, n=13 individual mice, except at d33 and d35 where PBS, n=14, S3, n=7 and S5, n=7 individual mice, and analysis was by Mann-Whitney test and *p<0.05, **p<0.01 and ***p<0.001 where blue * and black * represent PBS versus S3-1 and S5-1, respectively.

Data set [2] has as its system bone marrow-derived mast cells (BMM). Briefly: Mast cell cytokine release after FcεRI crosslinking. The settings on record: pre-treated during IgE sensitisation, 24 h after FcεRI crosslinking; FIG. 2. The class given is cell-based. How it is done:
(§1) Peritoneal-derived mast cells (PDMC; panels A & D) or bone marrow-derived mast cells (BMM; B, C, E & F) were pre-treated with the indicated concentrations of S3 and S5 (μg/ml) during the IgE sensitisation phase and then degranulation measured 1 h (A & D) following crosslinking of the IgE-bound FcεRI receptors (XL) or not (Basal). Alternatively TNFα (B & E) or IL-6 (C & F) release was measured 24 h following FcεRI crosslinking. Data are presented as means±SD where n=3 and analysis is by 1-way ANOVA and Newman-Keuls post test where ***p<0.001.
(§2) S3 and S5 were also tested for their effects on another immune system cell type, the mast cell. Similar to macrophages, activation of mast cells for example via the high-affinity receptor for IgE results in degranulation, resulting in release of inflammatory mediators, and secretion of various cytokines.

Data set [3] deals with mouse model of asthma, ovalbumin-induced airway hypersensitivity. Briefly: Ovalbumin-induced airway hypersensitivity (OAH) mouse model of asthma. The class given is in vivo. The settings on record: for lung pathology (H & E staining of lung tissue) / eosinophil influx into the lungs (BALF): prophylactic treatment; for lung pathology (H & E staining of lung tissue): FIG. 3A; for eosinophil influx into the lungs (BALF): FIG. 3B; for neutrophil influx into the lungs (BALF): therapeutic treatment, FIG. 3C. The protocol:
As a consequence of the mast cell findings S3 and […] were tested in a mouse model of asthma, ovalbumin-induced airway hypersensitivity (OAH). As can be shown in FIG. 3, both sulfones are able to inhibit infiltration of disease-causing eosinophils into the lungs and also overall lung pathology.

In data set [4] the test system is Peritoneal-derived mast cells (PDMC). Put plainly: Mast cell degranulation after FcεRI crosslinking. The class given is cell-based. The conditions noted are these: pre-treated during IgE sensitisation, measured 1 h after FcεRI crosslinking; FIG. 2. The protocol:
as §1, §2

SMILES strings stand for the structures. Where a name gives a salt, the structure may show the parent alone.

As to `Cc1ccc(CS(=O)(=O)CC[N+]2(C)CCCC2)cc1.[I-]` [S8, 1-Methyl-1-{2-[(4-methylbenzyl)sulfonyl]ethyl}pyrrolidinium iodide], the melting point (in general, the temperature of the solid-liquid transition) lay within 214 to 216 °C.

Consider `Cc1ccc(CS(=O)(=O)CCC[N+]2(C)CCOCC2)cc1.[I-]` [S22, 4-methyl-4-{3-[(4-methylbenzyl)sulfonyl]propyl}morpholin-4-ium iodide], for which the melting point lay within 181 to 183 °C.

In turn, `Cc1ccc(CS(=O)(=O)CCN(C)C)cc1` [S4, N,N-Di methyl-2-[(4-methylbenzyl)sulfonyl]ethanamine] gave a melting point of 68 to 70 °C.

Consider `Cc1ccc(CS(=O)(=O)CC[N+](C)(C)C)cc1.[I-]` [S5, N,N,N-trimethyl-2-[(4-methylbenzyl)sulfonyl]ethanaminium iodide], for which the melting point is 212 to 214 °C. For the same molecule, the “development of arthritis (articular score, paw swelling, incidence)” value in data set [1] is “significantly suppressed the development of arthritis”. Besides, in data set [2], the “secretion of IL-6 by mast cells” value is given as “inhibiting secretion” and the “secretion of TNF-α by mast cells” value is recorded as “inhibiting secretion”. Also, in data set [3], the “lung pathology (H & E staining of lung tissue)” value is listed as “inhibits lung pathology”, the “eosinophil influx into the lungs (BALF)” value is on record as “inhibits” and the “neutrophil influx into the lungs (BALF)” value is reported as “inhibits neutrophil influx”. Moreover, in data set [4], the mast cell degranulation entry was “suppressing degranulation”.

Molecule `Cc1ccc(CS(=O)(=O)CCCN2CCCC2)cc1` [S20, 1-{3-[(4-Methylbenzyl)sulfonyl]propyl}-pyrrolidine] displayed a melting point of 84 to 86 °C.

Take `Cc1ccc(CS(=O)(=O)CCCN2CCOCC2)cc1` [S19, 4-{3-[(4-methylbenzyl)sulfonyl]propyl}morpholine]: the melting point was 92 to 93 °C.

`O=S(=O)(CCN1CCOCC1)Cc1ccc(F)cc1` [S28, 4-{2-[(4-Fluorobenzyl)sulfonyl]ethyl}morpholine] registered a melting point of 72 to 74 °C.

`C[N+](C)(C)CCS(=O)(=O)Cc1ccc(Br)cc1` (as salt: methane sulfonate) [S1, N,N.N-trimethyl-2-1(4-bromobenzyl)sulfonyl{ethanaminiummethane sulfonate] came in with a melting point of 187 to 188 °C.

As for `O=S(=O)(CCN1CCCC1)Cc1ccc(F)cc1` [S29, 1-{2-[(4-Fluorobenzyl)sulfonyl]ethyl}pyrrolidine], the melting point lay within 76 to 78 °C.

In turn, `CN(C)CCS(=O)(=O)Cc1ccc(F)cc1` [S27, N-{2-[(4-Fluorobenzyl)sulfonyl]ethyl}-N,N-dimethylamine] showed a melting point of 50 to 52 °C.

The molecule `C[N+]1(CCS(=O)(=O)Cc2ccc(Br)cc2)CCCC1.[I-]` [S10, 1-Methyl-1-{2-[(4-bromobenzyl)sulfonyllethyl]}pyrrolidinium iodide] registered a melting point of 196 to 198 °C.

`Cc1ccc(CS(=O)(=O)CCN2CCCC2)cc1` [S7, 1-(2-[(4-Methylbenzyl)sulfonyl]ethyl)pyrrolidine]: the melting point lay within 84 to 86 °C.

Molecule `O=S(=O)(CCN1CCOCC1)Cc1cccc(F)c1` [S25, 4-{2-[(3-Fluorobenzyl)sulfonyl]ethyl}morpholine] returned a melting point of 74 to 76 °C.

Regarding `O=S(=O)(CCN1CCCC1)Cc1cccc(F)c1` [S26, 1-{2-[(3-Fluorobenzyl)sulfonyl]ethyl}pyrrolidine], the melting point fell in the range of 66 to 68 °C.

With `O=S(=O)(CCN1CCCC1)Cc1ccc(Br)cc1` [S9, 1-{2-[(4-bromobenzyl}sulfonyl]ethyl}pyrrolidine], the melting point lay in the range of 90 to 92 °C.

Turning to `CN(C)CCS(=O)(=O)Cc1ccc(Br)cc1` [S3, N-{2-[(4-Bromobenzyl)sulfonyl]ethyl}-N,N-dimethylamine], the melting point fell in the range of 58 to 60 °C. Further, the “development of arthritis (articular score, paw swelling, incidence)” value in data set [1] is reported as “significantly suppressed the development of arthritis”. In addition, in data set [2], the “secretion of IL-6 by mast cells” value is listed as “inhibiting secretion” and the “secretion of TNF-α by mast cells” value is “inhibiting secretion”. In addition, in data set [3], the “lung pathology (H & E staining of lung tissue)” value is reported as “inhibits lung pathology”, the “eosinophil influx into the lungs (BALF)” value is recorded as “inhibits” and the “neutrophil influx into the lungs (BALF)” value is given as “inhibits neutrophil influx”. Besides, in data set [4], the mast cell degranulation entry is recorded as “suppressing degranulation”.
